Measurements reported in patent EP0013784B1, “C-Substituted naphthalenemonosulfonic ureides, process for their preparation and pharmaceutical compositions containing them” (AMERICAN CYANAMID COMPANY, priority 1979, dated 1980).
“And” between values parts separate entries of the source, which are not always exact repeats. Equal values may be shown once. Where a name gives a salt, the structure may show the parent alone. Read-outs that look alike come from different tables or passages of the source. Blank lines part the entries; values can stand above or below the compound they belong to.

Key:
[1] = target: T1, human skin fibroblast collagenase (Homo sapiens, UniProt P03956); test: Collagenase Assay, Test Code 006 (degradation of 14C-labeled native collagen fibrils); type: biochemical; details: test conc.: 30 μg./ml.
T1 construct: endogenous in cells
T1 sequence (P03956 100-469): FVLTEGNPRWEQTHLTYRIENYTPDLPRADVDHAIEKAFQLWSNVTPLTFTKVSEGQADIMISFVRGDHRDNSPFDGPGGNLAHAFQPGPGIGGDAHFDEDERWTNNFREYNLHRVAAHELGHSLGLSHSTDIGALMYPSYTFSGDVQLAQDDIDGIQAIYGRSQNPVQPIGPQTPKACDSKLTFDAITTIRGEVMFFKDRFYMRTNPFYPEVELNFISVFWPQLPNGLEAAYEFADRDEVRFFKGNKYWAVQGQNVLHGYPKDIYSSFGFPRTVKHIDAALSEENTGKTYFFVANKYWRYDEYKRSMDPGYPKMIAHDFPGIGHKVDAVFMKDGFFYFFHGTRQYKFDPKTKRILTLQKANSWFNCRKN
Protocol: (§1) An active inhibitor would inhibit the degradation of the collagen fibril; (iii) Leukocyte Neutral Proteases Inhibitor Assay - This test measures the ability of neutral proteases derived from human leukocytes to degrade radiolabeled proteoglycans entrapped in polyacrylamide beads.
Collagenase assays were performed by a modification of the method of Harper, et al., Biochem.,-10, 3035 (1971). In a typical assay (total volume of 0.45 ml.), 100 pI. of the activated enzyme was added to the ^14C-labeled collagen fibrils (250 µl.) followed by 100 pl. of 50 mM cacodylate, pH 7.4, containing 5 mM calcium chloride. After incubation at 37°C. for 16 hours, the tubes were centrifuged in a Beckman microfuge for five minutes at full speed. An aliquot (200 pl.) of the supernatant, representing collagenase digestion products of the fibril, was assayed for radioactivity. […] Appropriate blanks and trypsin controls were run in parallel.
The activities are expressed as % inhibition (lowering) of collagenase activity, i.e. based on the 0% value for the enzyme control.

[2] = test system: fibroblast collagenase and leukocyte neutral protease; test: Enzymatic Degradation of Collagen of Human Gingiva (hydroxyproline content of residual tissue); type: biochemical; details: 36 hours at 37°C., enzymes alone 102.3
Protocol: The test compounds are able to inhibit the degradation of collagen of gingival tissue. Dried pieces of human gingiva were incubated at 37°C. for 36 hours with fibroblast collagenase and leukocyte neutral protease in the presence of test compound (30 and 50 µg./ml.). Antibiotics were present to prevent bacterial growth. After incubation, the residual tissue was hydrolyzed in 6N hydrochloric acid and the hydroxy-proline content (collagen) was determined. When collagenase and neutral protease were added to human gingiva, approximately 100 µg of collagen/mg. dry tissue was digested. If the test compound was present, degradation of gingival collagen was inhibited.

[3] = test system: Gingival Crevicular Fluid Collagenase; test: Crevicular Fluid Assay (gingival crevicular fluid collagenase degrading 14C-collagen fibrils); type: biochemical, human; details: Diseased crevicular fluid + 30 mcg./ml. of compound; about 90 hours at 37°C.; diseased fluid alone 66 ± 9; p<0.0005
From the text: as §1
Since studies by Golub, et al., Dental Res., 55, 1049 (1976) have shown that the crevicular collagenase plays a major role in the degradation of collagen in periodontal tissue, the effect of test compounds on collagen degradation by this system was examined. A volunteer with diagnosed periodontal disease was used. […] After one minute, the filter paper strip was removed and the volume of the gingival crevicular fluid was measured with the aid of the Periotron (Harco Electronics, Ltd., Winnipeg, Canada). The volume of the fluid gathered from the crevice by the filter paper strip is translated by a unique transducer onto a digital readout screen. […] After reading on the meter, 1 µl. of trypsin (1.5 µg./ml.) was added to the filter paper (to activate any latent collagenase present) and after five minutes at room temperature 1 pI. of aprotonin was added. […] The tubes were centrifuged as described above and a 200 µl. aliquot of the clear supernatant was assayed for radioactivity.

[4] = test system: neutral proteases derived from human leukocytes; test: Leukocyte Neutral Proteases Inhibitor Assay (3H/35S labeled proteoglycans entrapped in polyacrylamide beads); type: biochemical; details: for Percent Inhibition of Neutral Protease Activity ^3H: 3H label; for Percent Inhibition of Neutral Protease Activity ^35S: 35S label
Protocol: as §1
This assay system contained (total volume of 1 ml.) 60 mM Tris-CI, pH 7.4; 2.5 mM calcium chloride; 2.5 mM magnesium chloride; 2 mg. (dry weight) of polyacrylamide beads entrapped with labeled proteoglycans, and an aliquot of the leukocyte neutral protease preparation. The reaction mixture was incubated at 37°C. for 30 minutes in a shaking water bath. The reaction was terminated by the addition of 0.2 mi. of 5% SDS in 5% HCI (v/v). After five minutes at room temperature the mixture was centrifuged and the clear supernatant (0.6 ml.) was assayed for radioactivity. To determine the effect of the test compounds on degradation of proteoglycans by neutral proteases, various concentrations of the compounds were added to the reaction mixture. Appropriate blanks were included.

collagenase = details: as reported in Thromb. Res. 1977, 10(4), 605-11; cited from earlier work
[5] = compound in distilled water, 16 hours at 37°C., repeat determinations
[6] = compound in distilled water, 16 hours at 37°C., repeat determinations, read-out: % Inhibition of Collagenase
[7] = DMA = Dimethylacetamide, read-out: % Inhibition of Collagenase (DMA)

% Inhibition of Collagenase ([1]; compound in distilled water, 16 hours at 37°C., repeat determinations, disodium salt): 84% and 69% and 60% and 55%
Compound: O=C(Nc1cccc(C(=O)Nc2ccc(S(=O)(=O)O)c3cccc(O)c23)c1)Nc1cccc(C(=O)Nc2ccc(S(=O)(=O)O)c3cccc(O)c23)c1 [4,4'-[Ureylenebis(m-phenylenecarbonylimino)]bis-5-hydroxy-1-2-naphthalen,3sulfonic acid, disodium salt]

mcg. of Collagen degraded per mg. of dry gingiva ([2]; neutral proteases plus 30 mcg./ml. of compound): 60.4 mcg. per mg. of dry gingiva | mcg. of Collagen degraded per mg. of dry gingiva ([2]; neutral proteases plus 50 mcg./ml. of compound): 27.4 mcg. per mg. of dry gingiva | % Inhibition of Collagenase [1, 5]: 92% and 69% | cpm Collagen Degraded/Unit Periotron Reading [3]: 16 ± 6 cpm
Compound: O=C(Nc1cccc(C(=O)Nc2ccc3cc(S(=O)(=O)O)cc(O)c3c2)c1)Nc1cccc(C(=O)Nc2ccc3cc(S(=O)(=O)O)cc(O)c3c2)c1 [6,6'-[Ureylenebis(3,1-phenyl-enecarbonylimino)]bis[4-hydroxy] [6,6'-[Ureylenebis(m-phenylenecarbonylimino)]bis[4-hydroxy-2-naphthalenesulfonic acid]disodium salt]
Percent Inhibition of Neutral Protease Activity ^3H ([4]; 0.5 mcg./ml.): 0% | Percent Inhibition of Neutral Protease Activity ^35S ([4]; 0.5 mcg./ml.): 0% | Percent Inhibition of Neutral Protease Activity ^3H ([4]; 1.0 mcg./ml.): 17% | Percent Inhibition of Neutral Protease Activity ^35S ([4]; 1.0 mcg./ml.): 31% | Percent Inhibition of Neutral Protease Activity ^3H ([4]; 2.0 mcg./ml.): 21% | Percent Inhibition of Neutral Protease Activity ^35S ([4]; 2.0 mcg./ml.): 37% | Percent Inhibition of Neutral Protease Activity ^3H ([4]; 5.0 mcg./ml.): 47% | Percent Inhibition of Neutral Protease Activity ^35S ([4]; 5.0 mcg./ml.): 74% | Percent Inhibition of Neutral Protease Activity ^3H ([4]; 10.0 mcg./ml.): 63% | Percent Inhibition of Neutral Protease Activity ^35S ([4]; 10.0 mcg./ml.): 91%

inhibition at 30 µg/mL [1, 6]: 73%
Compound: Cc1ccc(C(=O)Nc2ccc3cc(S(=O)(=O)O)cc(O)c3c2)cc1NC(=O)Nc1cc(C(=O)Nc2ccc3cc(S(=O)(=O)O)cc(O)c3c2)ccc1C [6,6'-[Ureylenebis(4-methyl-3,1-phenylene)carbonyliminolbis[4-hydroxy-2-naphthalenesulfonic acid]-disodium salt]

inhibition at 30 µg/mL [1, 7]: 81%
Compound: O=C(Nc1cccc(C(=O)Nc2ccc3cc(S(=O)(=O)O)cc(O)c3c2)c1)Nc1cccc(C(=O)Nc2ccc3cc(S(=O)(=O)O)cc(O)c3c2)c1 [6,6'-[Ureylenebis(m-phenylenecarbonylimino)]bis[4-hydroxy-2-naphthalenesulfonic acid]disodium salt]

Compound: O=C(Nc1ccc(C(=O)Nc2ccc3cc(S(=O)(=O)O)cc(O)c3c2)cc1)Nc1ccc(C(=O)Nc2ccc3cc(S(=O)(=O)O)cc(O)c3c2)cc1 [6,6'-[Ureylenebis(p-phenylenecarbonylimino)]bis[4-hydroxy-2-naphthalenesulfonic acid acid], disodium salt]
inhibition at 30 µg/mL [1, 7]: 96% | inhibition at 30 µg/mL [1, 6]: 86%

Compound: O=C(Nc1ccc(C(=O)Nc2ccc3cc(S(=O)(=O)O)cc(O)c3c2)cc1)Nc1ccc(C(=O)Nc2ccc3cc(S(=O)(=O)O)cc(O)c3c2)cc1 [6,6-'Ureylenebis(p-phenylenecarbonylimino)bis[4-hydroxy-2-naphthalenesulfonic acid]-tetrasodium salt]
% Inhibition of Collagenase [1, 5]: 92%

Compound: Cc1ccc(C(=O)Nc2ccc(S(=O)(=O)O)c3cc(S(=O)(=O)O)cc(S(=O)(=O)O)c23)cc1NC(=O)c1cccc(NC(=O)Nc2cccc(C(=O)Nc3cc(C(=O)Nc4ccc(S(=O)(=O)O)c5cc(S(=O)(=O)O)cc(S(=O)(=O)O)c45)ccc3C)c2)c1 [Suramin]
inhibition of the activity of collagenase (collagenase): not inhibiting the action of collagenase

Compound: Cc1cc(-c2ccc(/N=N/c3c(S(=O)(=O)O)cc4cc(S(=O)(=O)O)cc(N)c4c3O)c(C)c2)ccc1/N=N/c1c(S(=O)(=O)O)cc2cc(S(=O)(=O)O)cc(N)c2c1O [trypan blue]
inhibition of the activity of collagenase (collagenase): inhibiting the activity of collagenase, or a proteinase contaminant in the collagenase preparation
